From ChEMBL document CHEMBL4152373 (Bioorg Med Chem, 2018)

Tested on: not listed separately
Assay: Octanol-PBS buffer partition coefficient, log D of the compound at pH 7.4 by HPLC method
Details: not given

| logD | SMILES |
| --- | --- |
| 2.74 to 2.9 | CN(C(=O)[C@@H](CC(=O)O)CC1CCCC1)c1nc(-c2ccccc2Cl)cs1 |
| 2.3 | CN(C(=O)[C@H](CC(=O)O)Cc1ccccc1)c1nc(-c2ccccc2Cl)cs1 |
| 3.1 | O=C(O)C[C@@H](CC1CCCC1)C(=O)N(c1nc(-c2ccccc2-c2ccc(-n3cccn3)nc2)cs1)C1CC1 |
| 2.4 | CC(C)C[C@H](CC(=O)O)C(=O)N(c1nc(-c2ccccc2-c2ccc(-n3cccn3)nc2)cs1)C1CC1 |
| 3.9 to 4.08 | CC(C)[C@H](C(=O)Nc1nccs1)c1ccc(Cl)cc1 |

The remaining lines, values behind:

| SMILES | logD |
| --- | --- |
| O=C(O)C[C@@H](Cc1ccccc1)C(=O)N(c1nc(-c2ccccc2Cl)cs1)C1CC1 | 2.3 |
| COc1ccc(-c2ccccc2-c2csc(N(C(=O)[C@@H](CC(=O)O)CC(C)C)C3CC3)n2)cn1 | 2.2 |
| COc1ccc(-c2ccc(Cl)cc2-c2csc(N(C(=O)[C@@H](CC(=O)O)Cc3ccco3)C3CC3)n2)cn1 | 2.5 |
| CN(C(=O)[C@@H](CC(=O)O)Cc1ccccc1)c1nc(-c2ccccc2Cl)cs1 | 2.13 to 2.3 |
| O=C(O)C[C@@H](Cc1ccccc1)C(=O)N(c1nc(-c2cc(Cl)ccc2Cl)cs1)C1CC1 | 3 |
| CN(C(=O)[C@@H](CC(=O)O)CC1CCOCC1)c1nc(-c2ccccc2Cl)cs1 | 1.27 to 1.3 |

Tested on: not listed separately
Assay: Octanol-PBS buffer partition coefficient, log D of the compound at pH 7.4 by shake flask method
Details: not given

| logD | SMILES |
| --- | --- |
| 2.87 | CN(C(=O)[C@@H](CC(=O)O)CC1CCCC1)c1nc(-c2ccccc2Cl)cs1 |
| 3.94 | CC(C)[C@H](C(=O)Nc1nccs1)c1ccc(Cl)cc1 |

More lines, now with the values behind:

| SMILES | logD |
| --- | --- |
| CN(C(=O)[C@@H](CC(=O)O)Cc1ccccc1)c1nc(-c2ccccc2Cl)cs1 | 2.31 |
| CN(C(=O)[C@@H](CC(=O)O)CC1CCOCC1)c1nc(-c2ccccc2Cl)cs1 | 1.27 |

Tested on: not listed separately
Assay: Fraction unbound in rat plasma at 5 uM after 4 hrs by equilibrium dialysis method
Details: not given

| fraction unbound at 4 h, 5 µM | SMILES |
| --- | --- |
| 0.0013 | O=C(O)C[C@@H](CC1CCCC1)C(=O)N(c1nc(-c2ccccc2-c2ccc(-n3cccn3)nc2)cs1)C1CC1 |
| 0.0057 | CC(C)C[C@H](CC(=O)O)C(=O)N(c1nc(-c2ccccc2-c2ccc(-n3cccn3)nc2)cs1)C1CC1 |
| 0.0062 | CC(C)[C@H](C(=O)Nc1nccs1)c1ccc(Cl)cc1 |

The remaining lines, values behind:

| SMILES | fraction unbound at 4 h, 5 µM |
| --- | --- |
| O=C(O)C[C@@H](Cc1ccccc1)C(=O)N(c1nc(-c2ccccc2Cl)cs1)C1CC1 | 0.0016 |
| COc1ccc(-c2ccccc2-c2csc(N(C(=O)[C@@H](CC(=O)O)CC(C)C)C3CC3)n2)cn1 | 0.0066 |
| COc1ccc(-c2ccc(Cl)cc2-c2csc(N(C(=O)[C@@H](CC(=O)O)Cc3ccco3)C3CC3)n2)cn1 | 0.0026 |
| CN(C(=O)[C@@H](CC(=O)O)Cc1ccccc1)c1nc(-c2ccccc2Cl)cs1 | 0.0008 |
| O=C(O)C[C@@H](Cc1ccccc1)C(=O)N(c1nc(-c2cc(Cl)ccc2Cl)cs1)C1CC1 | 0.0001 |

Tested on: not listed separately
Assay: Fraction unbound in mouse plasma at 5 uM after 4 hrs by equilibrium dialysis method
Details: not given

| fraction unbound at 4 h, 5 µM | SMILES |
| --- | --- |
| 0.0014 | O=C(O)C[C@@H](CC1CCCC1)C(=O)N(c1nc(-c2ccccc2-c2ccc(-n3cccn3)nc2)cs1)C1CC1 |
| 0.0075 | CC(C)C[C@H](CC(=O)O)C(=O)N(c1nc(-c2ccccc2-c2ccc(-n3cccn3)nc2)cs1)C1CC1 |
| 0.0052 | CC(C)[C@H](C(=O)Nc1nccs1)c1ccc(Cl)cc1 |

More lines, now with the values behind:

| SMILES | fraction unbound at 4 h, 5 µM |
| --- | --- |
| O=C(O)C[C@@H](Cc1ccccc1)C(=O)N(c1nc(-c2ccccc2Cl)cs1)C1CC1 | 0.0025 |
| COc1ccc(-c2ccccc2-c2csc(N(C(=O)[C@@H](CC(=O)O)CC(C)C)C3CC3)n2)cn1 | 0.0107 |
| COc1ccc(-c2ccc(Cl)cc2-c2csc(N(C(=O)[C@@H](CC(=O)O)Cc3ccco3)C3CC3)n2)cn1 | 0.0041 |
| CN(C(=O)[C@@H](CC(=O)O)Cc1ccccc1)c1nc(-c2ccccc2Cl)cs1 | 0.0015 |
| O=C(O)C[C@@H](Cc1ccccc1)C(=O)N(c1nc(-c2cc(Cl)ccc2Cl)cs1)C1CC1 | 0.0001 |

Tested on: Rattus norvegicus
Assay: Unbound clearance in Sprague-Dawley rat at 1 mg/kg, iv administered as single dose by LC-MS/MS analysis
Assay type: ADME, organism-based
Details: in vivo

| CL free [mL/min/kg] | SMILES |
| --- | --- |
| 6692 | O=C(O)C[C@@H](CC1CCCC1)C(=O)N(c1nc(-c2ccccc2-c2ccc(-n3cccn3)nc2)cs1)C1CC1 |
| 1091 | CC(C)C[C@H](CC(=O)O)C(=O)N(c1nc(-c2ccccc2-c2ccc(-n3cccn3)nc2)cs1)C1CC1 |
| 6666 | CC(C)[C@H](C(=O)Nc1nccs1)c1ccc(Cl)cc1 |

Continued, molecule first:

| SMILES | CL free [mL/min/kg] |
| --- | --- |
| O=C(O)C[C@@H](Cc1ccccc1)C(=O)N(c1nc(-c2ccccc2Cl)cs1)C1CC1 | 1044 |
| COc1ccc(-c2ccccc2-c2csc(N(C(=O)[C@@H](CC(=O)O)CC(C)C)C3CC3)n2)cn1 | 342 |
| COc1ccc(-c2ccc(Cl)cc2-c2csc(N(C(=O)[C@@H](CC(=O)O)Cc3ccco3)C3CC3)n2)cn1 | 2738 |
| CN(C(=O)[C@@H](CC(=O)O)Cc1ccccc1)c1nc(-c2ccccc2Cl)cs1 | 738 |
| O=C(O)C[C@@H](Cc1ccccc1)C(=O)N(c1nc(-c2cc(Cl)ccc2Cl)cs1)C1CC1 | 2800 |

Tested on: not listed separately
Assay: Half life in Sprague-Dawley rat at 1 mg/kg, iv administered as single dose by LC-MS/MS analysis
Assay type: ADME, organism-based
Details: in vivo

| half-life [h] | SMILES |
| --- | --- |
| 2.58 | O=C(O)C[C@@H](CC1CCCC1)C(=O)N(c1nc(-c2ccccc2-c2ccc(-n3cccn3)nc2)cs1)C1CC1 |
| 4.67 | CC(C)C[C@H](CC(=O)O)C(=O)N(c1nc(-c2ccccc2-c2ccc(-n3cccn3)nc2)cs1)C1CC1 |
| 3.67 | CC(C)[C@H](C(=O)Nc1nccs1)c1ccc(Cl)cc1 |

Further lines, the molecule ahead of its results:

| SMILES | half-life [h] |
| --- | --- |
| O=C(O)C[C@@H](Cc1ccccc1)C(=O)N(c1nc(-c2ccccc2Cl)cs1)C1CC1 | 5.32 |
| COc1ccc(-c2ccccc2-c2csc(N(C(=O)[C@@H](CC(=O)O)CC(C)C)C3CC3)n2)cn1 | 7.18 |
| COc1ccc(-c2ccc(Cl)cc2-c2csc(N(C(=O)[C@@H](CC(=O)O)Cc3ccco3)C3CC3)n2)cn1 | 9.65 |
| CN(C(=O)[C@@H](CC(=O)O)Cc1ccccc1)c1nc(-c2ccccc2Cl)cs1 | 8.03 |
| O=C(O)C[C@@H](Cc1ccccc1)C(=O)N(c1nc(-c2cc(Cl)ccc2Cl)cs1)C1CC1 | 9.83 |

Tested on: not listed separately
Assay: Oral bioavailability in Sprague-Dawley rat at 3 mg/kg administered via gavage as single dose by LC-MS/MS analysis
Assay type: ADME, organism-based
Details: in vivo

| bioavailability [%] | SMILES |
| --- | --- |
| 25 | O=C(O)C[C@@H](CC1CCCC1)C(=O)N(c1nc(-c2ccccc2-c2ccc(-n3cccn3)nc2)cs1)C1CC1 |
| 29 | CC(C)C[C@H](CC(=O)O)C(=O)N(c1nc(-c2ccccc2-c2ccc(-n3cccn3)nc2)cs1)C1CC1 |
| 15 | CC(C)[C@H](C(=O)Nc1nccs1)c1ccc(Cl)cc1 |

Second part, the molecule before the results:

| SMILES | bioavailability [%] |
| --- | --- |
| O=C(O)C[C@@H](Cc1ccccc1)C(=O)N(c1nc(-c2ccccc2Cl)cs1)C1CC1 | 52 |
| COc1ccc(-c2ccccc2-c2csc(N(C(=O)[C@@H](CC(=O)O)CC(C)C)C3CC3)n2)cn1 | 35 |
| COc1ccc(-c2ccc(Cl)cc2-c2csc(N(C(=O)[C@@H](CC(=O)O)Cc3ccco3)C3CC3)n2)cn1 | 38 |
| CN(C(=O)[C@@H](CC(=O)O)Cc1ccccc1)c1nc(-c2ccccc2Cl)cs1 | 77 |
| O=C(O)C[C@@H](Cc1ccccc1)C(=O)N(c1nc(-c2cc(Cl)ccc2Cl)cs1)C1CC1 | 47 |

Tested on: Rattus norvegicus
Assay: Dose normalized unbound AUC in Sprague-Dawley rat at 3 mg/kg, po administered via gavage as single dose by LC-MS/MS analysis
Assay type: ADME, organism-based
Details: in vivo

| fAUC/dose [µM·min] | SMILES |
| --- | --- |
| 0.07 | O=C(O)C[C@@H](CC1CCCC1)C(=O)N(c1nc(-c2ccccc2-c2ccc(-n3cccn3)nc2)cs1)C1CC1 |
| 0.55 | CC(C)C[C@H](CC(=O)O)C(=O)N(c1nc(-c2ccccc2-c2ccc(-n3cccn3)nc2)cs1)C1CC1 |
| 0.08 | CC(C)[C@H](C(=O)Nc1nccs1)c1ccc(Cl)cc1 |

The next lines start with the molecule.

| SMILES | fAUC/dose [µM·min] |
| --- | --- |
| O=C(O)C[C@@H](Cc1ccccc1)C(=O)N(c1nc(-c2ccccc2Cl)cs1)C1CC1 | 0.7 |
| COc1ccc(-c2ccccc2-c2csc(N(C(=O)[C@@H](CC(=O)O)CC(C)C)C3CC3)n2)cn1 | 2.1 |
| COc1ccc(-c2ccc(Cl)cc2-c2csc(N(C(=O)[C@@H](CC(=O)O)Cc3ccco3)C3CC3)n2)cn1 | 0.26 |
| CN(C(=O)[C@@H](CC(=O)O)Cc1ccccc1)c1nc(-c2ccccc2Cl)cs1 | 2.4 |
| O=C(O)C[C@@H](Cc1ccccc1)C(=O)N(c1nc(-c2cc(Cl)ccc2Cl)cs1)C1CC1 | 0.26 |

Tested on: Mus musculus
Assay: Dose normalized unbound AUC in C57Bl/6J mouse at 50 mg/kg, po administered via gavage as single dose by LC-MS/MS analysis
Assay type: ADME, organism-based
Details: in vivo

| fAUC/dose [µM·min] | SMILES |
| --- | --- |
| 0.53 | O=C(O)C[C@@H](CC1CCCC1)C(=O)N(c1nc(-c2ccccc2-c2ccc(-n3cccn3)nc2)cs1)C1CC1 |
| 3.3 | CC(C)C[C@H](CC(=O)O)C(=O)N(c1nc(-c2ccccc2-c2ccc(-n3cccn3)nc2)cs1)C1CC1 |

Second part, the molecule before the results:

| SMILES | fAUC/dose [µM·min] |
| --- | --- |
| O=C(O)C[C@@H](Cc1ccccc1)C(=O)N(c1nc(-c2ccccc2Cl)cs1)C1CC1 | 4.7 |
| COc1ccc(-c2ccccc2-c2csc(N(C(=O)[C@@H](CC(=O)O)CC(C)C)C3CC3)n2)cn1 | 4.7 |
| COc1ccc(-c2ccc(Cl)cc2-c2csc(N(C(=O)[C@@H](CC(=O)O)Cc3ccco3)C3CC3)n2)cn1 | 1.2 |
| CN(C(=O)[C@@H](CC(=O)O)Cc1ccccc1)c1nc(-c2ccccc2Cl)cs1 | 2 |
| O=C(O)C[C@@H](Cc1ccccc1)C(=O)N(c1nc(-c2cc(Cl)ccc2Cl)cs1)C1CC1 | 0.32 |

Tested on: Mus musculus
Assay: Dose normalized unbound AUC in C57Bl/6J mouse at 3 mg/kg, po administered via gavage as single dose by LC-MS/MS analysis
Assay type: ADME, organism-based
Details: in vivo

| SMILES | fAUC/dose [µM·min] |
| --- | --- |
| CC(C)[C@H](C(=O)Nc1nccs1)c1ccc(Cl)cc1 | 0.045 |

Tested on: Mus musculus
Assay: Antidiabetic activity in C57Bl/6J mouse assessed as inhibition of blood glucose AUC (0 to 120 mins) at 50 mg/kg, po treated prior to glucose challenge by OGTT relative to control
Assay type: functional
Details: not given

| SMILES | inhibition in vivo at 50 mg/kg [%] |
| --- | --- |
| O=C(O)C[C@@H](Cc1ccccc1)C(=O)N(c1nc(-c2ccccc2Cl)cs1)C1CC1 | 1 |
| COc1ccc(-c2ccccc2-c2csc(N(C(=O)[C@@H](CC(=O)O)CC(C)C)C3CC3)n2)cn1 | 19 |
| COc1ccc(-c2ccc(Cl)cc2-c2csc(N(C(=O)[C@@H](CC(=O)O)Cc3ccco3)C3CC3)n2)cn1 | 32 |
| CN(C(=O)[C@@H](CC(=O)O)Cc1ccccc1)c1nc(-c2ccccc2Cl)cs1 | -8 |
| O=C(O)C[C@@H](Cc1ccccc1)C(=O)N(c1nc(-c2cc(Cl)ccc2Cl)cs1)C1CC1 | 5 |
| O=C(O)C[C@@H](CC1CCCC1)C(=O)N(c1nc(-c2ccccc2-c2ccc(-n3cccn3)nc2)cs1)C1CC1 | 40 |
| CC(C)C[C@H](CC(=O)O)C(=O)N(c1nc(-c2ccccc2-c2ccc(-n3cccn3)nc2)cs1)C1CC1 | 26 |

Tested on: Mus musculus
Assay: Antidiabetic activity in C57Bl/6J mouse assessed as inhibition of blood glucose AUC (0 to 120 mins) at […], po treated prior to glucose challenge by OGTT relative to control
Assay type: functional
Details: AT84, po

| SMILES | inhibition in vivo at […] [%] |
| --- | --- |
| CC(C)[C@H](C(=O)Nc1nccs1)c1ccc(Cl)cc1 | 7 |
